What was measured:
[1] = in vivo; details: rat, iv, 1 mg/kg
Description: Half life in rat at 1 mg/kg, iv

[2] = in vivo; details: rat, iv, 1 mg/kg; remark: listed apart in the source
Description: Volume of distribution at steady state in rat at 1 mg/kg, iv

[3] = in vivo; details: rat, po, 1 mg/kg
[4] = in vivo; details: rat, po, 1 mg/kg; remark: listed apart in the source
[5] = in vitro; details: human, plasma
Description: Plasma protein binding in human

[6] = in vitro; details: rat, plasma
Description: Plasma protein binding in rat

[7] = in vivo; details: Sprague-Dawley, rat, iv, 10 mg/kg
Description: Plasma concentration in anesthetized Sprague-Dawley rat upto 10 mg/kg, iv administered as single dose measured after 30 mins

[8] = system: NCI-H929; assay: cells; details: Homo sapiens, NCI-H929, 24 h
Description: Antiproliferative activity against human NCI-H929 cells assessed as reduction in cell viability incubated for 24 hrs by Cell-Titer Glo assay

Row | IC50 [8] | SMILES | half-life [1] | Vd [2] | AUC [3] | bioavailability [4] | fraction unbound [5] | fraction unbound [6] | concentration at 0.5 h [7]
1 |  | COc1ccc(F)cc1-c1ccnc2[nH]c(C3=CCC(C(=O)O)CC3)cc12 (centres undefined) | 2.1 h | 0.51 L/kg | 3.1 µg·h/mL | 70% | 0.002 | 0.004 | 
2 |  | COc1ccc(F)cc1-c1ccnc2[nH]c(C3=CCC(N[C@@H](C(=O)O)C(C)C)CC3)cc12 (some centres undefined) | 0.68 h | 1 L/kg | < 0.01 µg·h/mL | 0.2% | 0.023 | 0.057 | 
3 |  | COc1ccc(F)cc1-c1ccnc2[nH]c(C3=CCN([C@H]4CC[C@@H](CC(=O)O)CC4)CC3)cc12 | 1.7 h | 3.4 L/kg | 0.04 µg·h/mL | 7.9% | 0.036 | 0.183 | 
4 |  | COc1ccc(F)cc1-c1ccnc2[nH]c(C3=CCN([C@H]4CC[C@H](CC(=O)O)CC4)CC3)cc12 | 2.8 h | 4.5 L/kg | 0.16 µg·h/mL | 21% | 0.037 | 0.087 | 
5 |  | COc1ccc(F)cc1-c1c(F)cnc2[nH]c(C3=CCN([C@H]4CC[C@H](C(=O)O)CC4)CC3)cc12 | 3.5 h | 2.7 L/kg | 0.45 µg·h/mL | 28% | 0.059 | 0.106 | 9 µg/mL
6 |  | CCOC(=O)NS(=O)(=O)N1CC=C(c2cc3c(-c4cc(F)ccc4OC)ccnc3[nH]2)CC1 | 1.6 h | 0.29 L/kg | 2.4 µg·h/mL | 64% | < 0.001 | 0.042 | 
7 |  | COc1ccc(F)cc1-c1c(F)cnc2[nH]c(C3=CCN([C@H]4CC[C@@H](C(=O)O)CC4)CC3)cc12 | 3 h | 2.6 L/kg | 0.14 µg·h/mL | 13% | 0.066 | 0.099 | 
8 |  | COc1ccc(F)cc1-c1c(F)cnc2[nH]c(C3=CCN([C@H]4CC[C@H](CC(=O)O)CC4)CC3)cc12 | 2.8 h | 2.9 L/kg | 0.14 µg·h/mL | 11% | 0.041 | 0.082 | 
9 |  | COc1ccc(F)cc1-c1ccnc2[nH]c(C3=CCN([C@H]4CC[C@H](C(=O)O)CC4)CC3)cc12 | 3.3 h | 1.9 L/kg | 0.4 µg·h/mL | 23% | 0.079 | 0.09 | 5.5 µg/mL
10 | > 10 µM | COc1ccc(F)cc1-c1ccnc2[nH]c(C3=CCN(c4ccc(CC(=O)O)cc4)CC3)cc12 |  |  |  |  |  |  | 
11 |  | COc1ccc(F)cc1-c1ccnc2[nH]c(C3=CCN([C@H]4CC[C@@H](C(=O)O)CC4)CC3)cc12 | 3.2 h | 4.7 L/kg | 0.16 µg·h/mL | 20% | 0.074 | 0.16 | 
12 | 0.17 µM | COc1ccc(F)cc1-c1ccnc2[nH]c(C3=CCC(N4CCC(C(=O)O)CC4)CC3)cc12 (centres undefined) |  |  |  |  |  |  | 
